According to PubChem BioAssay AID1259407 (Chemical Carcinogenesis Research Information System (CCRIS), 2018):
Activity calls are given as the source filed them. No rule for the calls is given here.

Test system: CCRIS mutagenicity, Ames/micronucleus/aberration tests
Experiment: CCRIS mutagenicity studies
[1] = Test System: AMES SALMONELLA TYPHIMURIUM, Strain/Indicator: TA97, Metabolic Activation: NONE, Method: PREINCUBATION
[2] = Test System: AMES SALMONELLA TYPHIMURIUM, Strain/Indicator: TA98, Metabolic Activation: NONE, Method: PREINCUBATION
[3] = Test System: AMES SALMONELLA TYPHIMURIUM, Strain/Indicator: TA100, Metabolic Activation: NONE, Method: PREINCUBATION
[4] = Test System: AMES SALMONELLA TYPHIMURIUM, Strain/Indicator: TA100, Metabolic Activation: RAT, LIVER, S-9, AROCLOR 1254, Method: STANDARD PLATE

In the case of `Cc1ccc(N=C=O)cc1N=C=O`, the mutagenic call (End Point: IN VITRO CHROMOSOMAL ABERRATIONS, Test System: CHL CELLS, Metabolic Activation: RAT, LIVER, S-9, SODIUM PHENOBARBITAL AND 5,6-BENZOFLAVONE) is reported as “inactive; negative; authors report equivocal results for ploidy changes at the highest dos”, the mutagenic call (End Point: IN VITRO CHROMOSOMAL ABERRATIONS, Test System: CHO CELLS, Metabolic Activation: RAT, LIVER, S-9, AROCLOR 1254) is reported as “inactive; negative; precipitation occurred at 500 and 750 ug/ml” and the mutagenic call (Test System: AMES SALMONELLA TYPHIMURIUM, Strain/Indicator: TA97, Metabolic Activation: HAMSTER, LIVER, S-9, AROCLOR 1254 (10%), Method: PREINCUBATION) is reported as “inactive; negative”. For the same compound, the mutagenic call [1] was “inactive; negative”, the mutagenic call (Test System: AMES SALMONELLA TYPHIMURIUM, Strain/Indicator: TA97, Metabolic Activation: RAT, LIVER, S-9, AROCLOR 1254 (10%), Method: PREINCUBATION) was “inactive; negative” and the mutagenic call (Test System: AMES SALMONELLA TYPHIMURIUM, Strain/Indicator: TA98, Metabolic Activation: HAMSTER, LIVER, S-9, AROCLOR 1254 (10%), Method: PREINCUBATION) was “active; positive”. The mutagenic call [2] was “inactive; negative”, the mutagenic call (Test System: AMES SALMONELLA TYPHIMURIUM, Strain/Indicator: TA98, Metabolic Activation: RAT LIVER S-9, AROCLOR 1254 (10 OR 30%), Method: STANDARD PLATE) was “active; positive” and the mutagenic call (Test System: AMES SALMONELLA TYPHIMURIUM, Strain/Indicator: TA98, Metabolic Activation: RAT LIVER S-9, PHENOBARBITAL AND BETA-NAPHTHOFLAVONE, Method: PREINCUBATION) was “inactive; negative”. The mutagenic call (Test System: AMES SALMONELLA TYPHIMURIUM, Strain/Indicator: TA98, Metabolic Activation: RAT, LIVER, S-9, AROCLOR 1254 (10%), Method: PREINCUBATION) was “active; positive”, the mutagenic call (Test System: AMES SALMONELLA TYPHIMURIUM, Strain/Indicator: TA100, Metabolic Activation: HAMSTER, LIVER, S-9, AROCLOR 1254 (10%), Method: PREINCUBATION) was “active; positive” and the mutagenic call [3] was “inactive; negative”. For the same compound, the mutagenic call (Test System: AMES SALMONELLA TYPHIMURIUM, Strain/Indicator: TA100, Metabolic Activation: RAT, LIVER, S-9, AROCLOR 1254 (10%), Method: PREINCUBATION) was “active; positive”, the mutagenic call (Test System: AMES SALMONELLA TYPHIMURIUM, Strain/Indicator: TA1535, Metabolic Activation: HAMSTER, LIVER, S-9, AROCLOR 1254 (10%), Method: PREINCUBATION) was “inactive; negative” and the mutagenic call (Test System: AMES SALMONELLA TYPHIMURIUM, Strain/Indicator: TA1535, Metabolic Activation: NONE, Method: PREINCUBATION) was “inactive; negative”. For the same compound, the mutagenic call (Test System: AMES SALMONELLA TYPHIMURIUM, Strain/Indicator: TA1535, Metabolic Activation: RAT LIVER S-9, PHENOBARBITAL AND BETA-NAPHTHOFLAVONE, Method: PREINCUBATION) was “inactive; negative”, the mutagenic call (Test System: AMES SALMONELLA TYPHIMURIUM, Strain/Indicator: TA1535, Metabolic Activation: RAT, LIVER, S-9, AROCLOR 1254 (10%), Method: PREINCUBATION) was “inactive; negative” and the mutagenic call (Test System: AMES SALMONELLA TYPHIMURIUM, Strain/Indicator: TA1537, Metabolic Activation: NONE, Method: PREINCUBATION) was “inactive; negative”. The mutagenic call (Test System: AMES SALMONELLA TYPHIMURIUM, Strain/Indicator: TA1537, Metabolic Activation: RAT LIVER S-9, AROCLOR 1254 (10 OR 30%), Method: STANDARD PLATE) was “active; positive”, the mutagenic call (Test System: AMES SALMONELLA TYPHIMURIUM, Strain/Indicator: TA1537, Metabolic Activation: RAT LIVER S-9, PHENOBARBITAL AND BETA-NAPHTHOFLAVONE, Method: PREINCUBATION) was “inactive; negative” and the mutagenic call (Test System: E.COLI, Strain/Indicator: WP2UVRA, Metabolic Activation: NONE, Method: PREINCUBATION) was “inactive; negative”. For the same compound, the mutagenic call (Test System: E.COLI, Strain/Indicator: WP2UVRA, Metabolic Activation: RAT LIVER S-9, PHENOBARBITAL AND BETA-NAPHTHOFLAVONE, Method: PREINCUBATION) was “inactive; negative”, the mutagenic call (Test System: MOUSE LYMPHOMA, Strain/Indicator: L5178Y (TK+/TK-), Metabolic Activation: NONE, Method: SUSPENSION/PLATE) was “active; positive” and the mutagenic call (Test System: MOUSE LYMPHOMA, Strain/Indicator: L5178Y (TK+/TK-), Metabolic Activation: RAT, LIVER, S-9, AROCLOR 1254, Method: SUSPENSION/PLATE) was “active; positive”.

`CC(=O)CC(O)(CC(=O)O)C(=O)O` (stereo not given) was tested, and the mutagenic call [1] was “inactive; negative”, the mutagenic call (Test System: AMES SALMONELLA TYPHIMURIUM, Strain/Indicator: TA97, Metabolic Activation: S-9, Method: PREINCUBATION) was “inactive; negative” and the mutagenic call (Test System: AMES SALMONELLA TYPHIMURIUM, Strain/Indicator: TA102, Metabolic Activation: NONE, Method: PREINCUBATION) was “inactive; negative”. The mutagenic call (Test System: AMES SALMONELLA TYPHIMURIUM, Strain/Indicator: TA102, Metabolic Activation: S-9, Method: PREINCUBATION) was “inactive; negative”.

In the case of `O=C1c2ccccc2C(=O)c2c1cc(O[C@@H]1O[C@H](CO[C@@H]3OC[C@@H](O)[C@H](O)[C@H]3O)[C@@H](O)[C@H](O)[C@H]1O)c(CO)c2O`, the mutagenic call [2] is reported as “inactive; negative”, the mutagenic call (Test System: AMES SALMONELLA TYPHIMURIUM, Strain/Indicator: TA98, Metabolic Activation: RAT, LIVER, S-9, PCB, Method: PREINCUBATION) is reported as “inactive; negative” and the mutagenic call [3] is reported as “active; positive”. For the same compound, the mutagenic call (Test System: AMES SALMONELLA TYPHIMURIUM, Strain/Indicator: TA100, Metabolic Activation: RAT, LIVER, S-9, PCB, Method: PREINCUBATION) was “inactive; negative” and the mutagenic call (Test System: UDS RODENT HEPATOCYTES, Strain/Indicator: THY INCORP, Metabolic Activation: NONE) was “active; positive”.

In the case of `O=C(N[C@@H](Cc1ccc(Cl)cc1)C(=O)O)OCc1ccccc1`, the mutagenic call (Test System: AMES SALMONELLA TYPHIMURIUM, Strain/Indicator: TA98, Metabolic Activation: NONE) is reported as “inactive; negative”, the mutagenic call (Test System: AMES SALMONELLA TYPHIMURIUM, Strain/Indicator: TA100, Metabolic Activation: NONE) is reported as “active; positive” and the mutagenic call (Test System: AMES SALMONELLA TYPHIMURIUM, Strain/Indicator: TA1535, Metabolic Activation: NONE) is reported as “inactive; negative”. For the same compound, the mutagenic call (Test System: AMES SALMONELLA TYPHIMURIUM, Strain/Indicator: TA1537, Metabolic Activation: NONE) was “inactive; negative”, the mutagenic call (Test System: B. SUBTILIS, Strain/Indicator: BD190 REC, Metabolic Activation: NONE, Method: SPOT TEST) was “active; positive” and the mutagenic call (Test System: E. COLI, Strain/Indicator: AB2462 UVRA, Metabolic Activation: NONE, Method: SPOT TEST) was “active; positive”. The mutagenic call (Test System: E. COLI, Strain/Indicator: WP6 POLA, Metabolic Activation: NONE, Method: SPOT TEST) was “inactive; negative”.

`CN(C)CCNC(=O)c1cccc2c1Oc1ccccc1O2` was tested, and the mutagenic call (Test System: AMES SALMONELLA TYPHIMURIUM, Strain/Indicator: TA1537, Metabolic Activation: NONE, Method: STANDARD PLATE) was “active; positive”.

For `O=C1c2ccc(O)cc2C(=O)c2ccc(O)cc21`, the mutagenic call (Test System: AMES SALMONELLA TYPHIMURIUM, Strain/Indicator: TA98, Metabolic Activation: NONE, Method: STANDARD PLATE) was “inactive; negative”, the mutagenic call (Test System: AMES SALMONELLA TYPHIMURIUM, Strain/Indicator: TA98, Metabolic Activation: RAT, LIVER, S-9, AROCLOR 1254, Method: STANDARD PLATE) was “inactive; negative” and the mutagenic call (Test System: AMES SALMONELLA TYPHIMURIUM, Strain/Indicator: TA100, Metabolic Activation: NONE, Method: STANDARD PLATE) was “inactive; negative”. The mutagenic call [4] was “inactive; negative”, the mutagenic call (Test System: AMES SALMONELLA TYPHIMURIUM, Strain/Indicator: TA1535, Metabolic Activation: NONE, Method: STANDARD PLATE) was “inactive; negative” and the mutagenic call (Test System: AMES SALMONELLA TYPHIMURIUM, Strain/Indicator: TA1535, Metabolic Activation: RAT, LIVER, S-9, AROCLOR 1254, Method: STANDARD PLATE) was “inactive; negative”. The mutagenic call (Test System: AMES SALMONELLA TYPHIMURIUM, Strain/Indicator: TA1538, Metabolic Activation: NONE, Method: STANDARD PLATE) was “inactive; negative” and the mutagenic call (Test System: AMES SALMONELLA TYPHIMURIUM, Strain/Indicator: TA1538, Metabolic Activation: RAT, LIVER, S-9, AROCLOR 1254, Method: STANDARD PLATE) was “inactive; negative”.

In the case of `Cc1ccc2c(ccc3[nH]c4ccc5ccccc5c4c32)c1`, the mutagenic call [4] is reported as “active; positive”.
